For one experiment, the target named is T1, BTK (Homo sapiens, UniProt Q06187).
T1 construct: High control=Cell group with added DMSO and without compound, indicating microplate readings without BTK degradation; endogenous in cells; host or cells: TMD-8 cells
Nature of the experiment: Cell Degradation: BTK degradation in TMD-8 cells, HTRF assay. The format is cell-based. The note with it: 6 h treatment, IC50 (DC50) of BTK degradation. Summed up:
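BTK levels read by HTRF (665 vs 620 nm) in lysates of TMD-8 cells after 6 h compound exposure (eight doses, 6-fold steps, 0.2% DMSO). Percent degradation relative to controls; four-parameter curve fitting gave DC50, with Dmax the top degradation.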

The test system of a further experiment is HEK-293 cells. Nature of the experiment: HEK-293 Cytotoxicity Assay (CellTiter-Glo). The experiment is classed as cell-based. The note with it: Homo sapiens, HEK293, 72 h incubation, CellTiter-Glo luminescence. A digest of the protocol: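 Four-parameter fit of % inhibition gives IC50, from CellTiter-Glo luminescent viability read-out. Cells exposed for 72 h to an 8-point, 4-fold series at 0.2% DMSO.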

Counter-ions that a name gives are not always drawn.

T1 sequence (Q06187 whole entry): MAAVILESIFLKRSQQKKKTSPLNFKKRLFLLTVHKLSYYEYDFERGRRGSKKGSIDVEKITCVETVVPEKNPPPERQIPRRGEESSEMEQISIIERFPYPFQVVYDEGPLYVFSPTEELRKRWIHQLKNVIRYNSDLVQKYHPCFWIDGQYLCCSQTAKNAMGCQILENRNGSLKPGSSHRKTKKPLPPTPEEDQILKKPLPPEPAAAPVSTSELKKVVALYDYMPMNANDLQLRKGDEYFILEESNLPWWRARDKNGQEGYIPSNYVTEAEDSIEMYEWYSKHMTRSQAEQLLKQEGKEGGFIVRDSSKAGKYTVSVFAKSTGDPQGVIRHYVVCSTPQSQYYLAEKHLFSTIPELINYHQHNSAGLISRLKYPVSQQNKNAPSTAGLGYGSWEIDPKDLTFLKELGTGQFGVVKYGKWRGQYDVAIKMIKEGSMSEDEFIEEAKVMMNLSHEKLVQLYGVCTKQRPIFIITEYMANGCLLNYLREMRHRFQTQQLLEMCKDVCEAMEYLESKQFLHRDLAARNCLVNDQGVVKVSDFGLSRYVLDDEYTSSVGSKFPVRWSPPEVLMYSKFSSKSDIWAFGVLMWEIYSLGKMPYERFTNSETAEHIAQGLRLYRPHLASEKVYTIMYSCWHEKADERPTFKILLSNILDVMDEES

For `Cc1cc(-c2ncnc3[nH]c(-c4ccc(N5CCN(CC6CCN(c7ccc(N8CCC(=O)NC8=O)cc7)CC6)CC5)cc4)cc23)ccc1CNC(=O)c1cn(C(C)(C)C)nn1` [Example 37, 1-(tert-butyl)-N-(4-(6-(4-(4-((1-(4-(2,4-dioxotetrahydropyrimidin-1(2H)-yl)phenyl)piperidin-4-yl)methyl)piperazin-1-yl)phenyl)-7H-pyrrolo[2,3-d]pyrimidin-4-yl)-2-methylbenzyl)-1H-1,2,3-triazole-4-carboxamide], half-maximal degradation at BTK (DC50) was put at 1.2 nM. Further, the IC50 in the experiment with HEK-293 cells is above 10 µM.

Turning to `Cc1cc(-c2ncnc3[nH]c(-c4ccc(N5CCN(CC6CCN(c7ccc(N8CCC(=O)NC8=O)cc7)CC6)CC5)c(F)c4)cc23)ccc1[C@@H](C)NC(=O)c1nc(C(C)(C)C)no1` [Example 38, (R)-3-(tert-butyl)-N-(1-(4-(6-(4-(4-((1-(4-(2,4-dioxotetrahydropyrimidin-1(2H)-yl)phenyl)piperidin-4-yl)methyl)piperazin-1-yl)-3-fluorophenyl)-7H-pyrrolo[2,3-d]pyrimidin-4-yl)-2-methylphenyl)ethyl)-1,2,4-oxadiazole-5-carboxamide, Formate], the DC50 on BTK amounted to 2.1 nM. In the experiment on HEK-293 cells, the concentration for half-maximal inhibition (IC50) was above 10 µM.

At BTK, `Cc1cc(-c2ncnc3[nH]c(-c4ccc(C5CCN(CC6CCN(c7ccc(N8CCC(=O)NC8=O)cc7F)CC6)CC5)cc4)cc23)ccc1CNC(=O)c1nc(C(C)(C)C)no1` [Example 39, 3-(tert-butyl)-N-(4-(6-(4-(1-((1-(4-(2,4-dioxotetrahydropyrimidin-1(2H)-yl)-2-fluorophenyl)piperidin-4-yl)methyl)piperidin-4-yl)phenyl)-7H-pyrrolo[2,3-d]pyrimidin-4-yl)-2-methylbenzyl)-1,2,4-oxadiazole-5-carboxamide Formate] gave a DC50 of 1.1 nM. Moreover, the IC50 in the experiment with HEK-293 cells was above 10 µM.

Compound `Cc1cc(-c2ncnc3[nH]c(-c4ccc(C5CCN(CC6CCN(c7ccc(N8CCC(=O)NC8=O)cc7)CC6)CC5)cc4)cc23)ccc1CNC(=O)c1cn(C(C)(C)C)nn1` [Example 40, 1-(tert-butyl)-N-(4-(6-(4-(1-((1-(4-(2,4-dioxotetrahydropyrimidin-1(2H)-yl)phenyl)piperidin-4-yl)methyl)piperidin-4-yl)phenyl)-7H-pyrrolo[2,3-d]pyrimidin-4-yl)-2-methylbenzyl)-1H-1,2,3-triazole-4-carboxamide] registered a DC50 at BTK of 0.63 nM. This compound also gave a half-inhibitory concentration (IC50) in the experiment with HEK-293 cells above 10 µM.

At BTK, `Cc1cc(-c2ncnc3[nH]c(-c4ccc(N5CCN(CC6CCN(c7ccc(N8CCC(=O)NC8=O)cc7)CC6)CC5)cc4)cc23)ccc1[C@@H](C)NC(=O)c1noc(C(C)(C)C)n1` [Example 41, (R)-5-(tert-butyl)-N-(1-(4-(6-(4-(4-((1-(4-(2,4-dioxotetrahydropyrimidin-1(2H)-yl)phenyl)piperidin-4-yl)methyl)piperazin-1-yl)phenyl)-7H-pyrrolo[2,3-d]pyrimidin-4-yl)-2-methylphenyl)ethyl)-1,2,4-oxadiazole-3-carboxamide] registered a DC50 of 1.3 nM. Also, the IC50 with HEK-293 cells is above 10 µM.

For `CC(C)(C)c1noc(C(=O)NCc2ccc(-c3ncnc4[nH]c(-c5ccc(N6CCN(CC7CCN(c8ccc(N9CCC(=O)NC9=O)cc8)CC7)CC6)nc5)cc34)cc2F)n1` [Example 42, 3-(tert-butyl)-N-(4-(6-(6-(4-((1-(4-(2,4-dioxotetrahydropyrimidin-1(2H)-yl)phenyl)piperidin-4-yl)methyl)piperazin-1-yl)pyridin-3-yl)-7H-pyrrolo[2,3-d]pyrimidin-4-yl)-2-fluorobenzyl)-1,2,4-oxadiazole-5-carboxamide], on BTK, it took 0.51 nM to reach half-maximal degradation (DC50). In the experiment with HEK-293 cells, the IC50 was above 10 µM.

As to `Cc1cc(-c2ncnc3[nH]c(-c4ccc(N5CCN(CC6CCN(c7cc(F)ccc7N7CCC(=O)NC7=O)CC6)CC5)cc4)cc23)ccc1[C@@H](C)NC(=O)c1nc(C(C)(C)C)no1` [Example 43, (R)-3-(tert-butyl)-N-(1-(4-(6-(4-(4-((1-(2-(2,4-dioxotetrahydropyrimidin-1(2H)-yl)-5-fluorophenyl)piperidin-4-yl)methyl)piperazin-1-yl)phenyl)-7H-pyrrolo[2,3-d]pyrimidin-4-yl)-2-methylphenyl)ethyl)-1,2,4-oxadiazole-5-carboxamide], at BTK, the 50% degradation concentration (DC50) was above 2000 nM. This compound displayed an IC50 in the experiment on HEK-293 cells above 10 µM.

Compound `Cc1cc(-c2ncnc3[nH]c(-c4ccc(N5CCN(CC6CCN(c7ccc(N8CCC(=O)NC8=O)c(C)c7)CC6)CC5)cc4)cc23)ccc1[C@@H](C)NC(=O)c1nc(C(C)(C)C)no1` [Example 44, (R)-3-(tert-butyl)-N-(1-(4-(6-(4-(4-((1-(4-(2,4-dioxotetrahydropyrimidin-1(2H)-yl)-3-methylphenyl)piperidin-4-yl)methyl)piperazin-1-yl)phenyl)-7H-pyrrolo[2,3-d]pyrimidin-4-yl)-2-methylphenyl)ethyl)-12,4-oxadiazole-5-carboxamide] gave a DC50 on BTK of 1.2 nM. In the experiment on HEK-293 cells, this compound registered an IC50 above 10 µM.

With `COc1cc(N2CCC(CN3CCN(c4ccc(-c5cc6c(-c7ccc([C@@H](C)NC(=O)c8nc(C(C)(C)C)no8)c(C)c7)ncnc6[nH]5)cc4)CC3)CC2)ccc1N1CCC(=O)NC1=O` [Example 45, (R)-3-(tert-butyl)-N-(1-(4-(6-(4-(4-((1-(4-(2,4-dioxotetrahydropyrimidin-1(2H)-yl)-3-methoxyphenyl)piperidin-4-yl)methyl)piperazin-1-yl)phenyl)-7H-pyrrolo[2,3-d]pyrimidin-4-yl)-2-methylphenyl)ethyl)-1,2,4-oxadiazole-5-carboxamide], half-maximal degradation on BTK (DC50) was put at 1.8 nM. Besides, in the experiment with HEK-293 cells, the IC50 is above 10 µM.

As to `Cc1cc(-c2ncnc3[nH]c(-c4ccc(N5CCN(CC6CCN(c7ccc(N8CCC(=O)NC8=O)cc7)CC6)CC5)cc4)cc23)ccc1CNC(=O)c1csc(C(C)(C)C)n1` [Example 46, 2-(tert-butyl)-N-(4-(6-(4-(4-((1-(4-(2,4-dioxotetrahydropyrimidin-1(2H)-yl)phenyl)piperidin-4-yl)methyl)piperazin-1-yl)phenyl)-7H-pyrrolo[2,3-d]pyrimidin-4-yl)-2-methylbenzyl)thiazole-4-carboxamide], it took 5.3 nM to reach half-maximal degradation on BTK (DC50). In the experiment with HEK-293 cells, the IC50 is above 10 µM.

The compound `Cc1cc(-c2ncnc3[nH]c(-c4ccc(N5CCN(CC6CCN(c7ccc(N8CCC(=O)NC8=O)cc7)CC6)CC5)cc4)cc23)ccc1CNC(=O)c1cnc(C(C)(C)C)s1` [Example 47, 2-(tert-butyl)-N-(4-(6-(4-(4-((1-(4-(2,4-dioxotetrahydropyrimidin-1(2H)-yl)phenyl)piperidin-4-yl)methyl)piperazin-1-yl)phenyl)-7H-pyrrolo[2,3-d]pyrimidin-4-yl)-2-methylbenzyl)thiazole-5-carboxamide] yielded a 50% degradation concentration (DC50) on BTK of 1.8 nM. Also, the IC50 in the experiment with HEK-293 cells was above 10 µM.

As for `Cc1cc(-c2ncnc3[nH]c(-c4ccc(N5CCN(CC6CCN(c7ccc(C8CCC(=O)NC8=O)cc7)CC6)CC5)nc4)cc23)ccc1[C@@H](C)NC(=O)c1nc(C(C)(C)C)no1` (stereo partly drawn) [Example 48, 3-(tert-butyl)-N-((1R)-1-(4-(6-(6-(4-((1-(4-(2,6-dioxopiperidin-3-yl)phenyl)piperidin-4-yl)methyl)piperazin-1-yl)pyridin-3-yl)-7H-pyrrolo[2,3-d]pyrimidin-4-yl)-2-methylphenyl)ethyl)-1,2,4-oxadiazole-5-carboxamide], the 50% degradation concentration (DC50) at BTK is 1.7 nM. Besides, in the experiment on HEK-293 cells, the IC50 was above 10 µM.

On to `Cc1cc(-c2ncnc3[nH]c(-c4ccc(OC5CCN(CC6CCN(c7ccc(N8CCC(=O)NC8=O)cc7)CC6)CC5)cc4)cc23)ccc1CNC(=O)c1nc(C(C)(C)C)no1` [Example 49, 3-(tert-butyl)-N-(4-(6-(4-((1-((1-(4-(2,4-dioxotetrahydropyrimidin-1(2H)-yl)phenyl)piperidin-4-yl)methyl)piperidin-4-yl)oxy)phenyl)-7H-pyrrolo[2,3-d]pyrimidin-4-yl)-2-methylbenzyl)-1,2,4-oxadiazole-5-carboxamide], for which half-maximal degradation at BTK (DC50) was put at 1.3 nM. This compound also gave a half-maximal inhibitory concentration (IC50) in the experiment with HEK-293 cells above 10 µM.

For the compound `Cc1cc(-c2ncnc3[nH]c(-c4ccc(N5CCN(CC6CCN(c7ccc(N8CCC(=O)NC8=O)cc7)CC6)CC5)cc4)cc23)ccc1CNC(=O)c1noc(C(C)(C)C(F)(F)F)n1` [Example 50, N-(4-(6-(4-(4-((1-(4-(2,4-dioxotetrahydropyrimidin-1(2H)-yl)phenyl)piperidin-4-yl)methyl)piperazin-1-yl)phenyl)-7H-pyrrolo[2,3-d]pyrimidin-4-yl)-2-methylbenzyl)-5-(1,1,1-trifluoro-2-methylpropan-2-yl)-1,2,4-oxadiazole-3-carboxamide], on BTK, half-maximal degradation (DC50) was put at 1.1 nM. The same compound came in with a 50% inhibitory concentration (IC50) with HEK-293 cells above 10 µM.

Turning to `Cc1cc(-c2ncnc3[nH]c(-c4ccc(N5CCN(CC6CCN(c7ccc(N8CCC(=O)NC8=O)cc7)CC6)CC5)cc4)cc23)ccc1CNC(=O)c1noc(C2(C(F)(F)F)CC2)n1` [Example 51, N-(4-(6-(4-(4-((1-(4-(2,4-dioxotetrahydropyrimidin-1(2H)-yl)phenyl)piperidin-4-yl)methyl)piperazin-1-yl)phenyl)-7H-pyrrolo[2,3-d]pyrimidin-4-yl)-2-methylbenzyl)-5-(1-(trifluoromethyl)cyclopropyl)-1,2,4-oxadiazole-3-carboxamide], half-maximal degradation on BTK (DC50) was put at 0.38 nM. The same compound came in with an IC50 in the experiment with HEK-293 cells above 10 µM.

For `Cc1cc(N2CCC(CN3CCN(c4ccc(-c5cc6c(-c7ccc([C@@H](C)NC(=O)c8nc(C(C)(C)C)no8)c(F)c7)ncnc6[nH]5)cn4)CC3)CC2)ccc1N1CCC(=O)NC1=O` [Example 52, (R)-3-(tert-butyl)-N-(1-(4-(6-(6-(4-((1-(4-(2,4-dioxotetrahydropyrimidin-1(2H)-yl)-3-methylphenyl)piperidin-4-yl)methyl)piperazin-1-yl)pyridin-3-yl)-7H-pyrrolo[2,3-d]pyrimidin-4-yl)-2-fluorophenyl)ethyl)-1,2,4-oxadiazole-5-carboxamide], half-maximal degradation on BTK (DC50) was put at 1.7 nM. This compound displayed an IC50 with HEK-293 cells above 10 µM.

The values above are taken from patent publication US20230167118A1, “DEGRADATION OF BRUTON'S TYROSINE KINASE (BTK) BY CONJUGATION OF BTK INIDBITORS WITH E3 LIGASE LIGAND AND METHODS OF USE” (BEIGENE, LTD., priority 2020, published 2023).
